Results: patent US7767659B2, “Synthesis of naturally occurring ecteinascidins and related compounds” (Pharma Mar, S.A., priority 2002, dated 2010)
Read-outs that look alike come from different tables or passages of the source.

What was measured:
IGROV-ET = assay: Inhibition of cells growth by colorimetric assay (SRB); details: Homo sapiens, 48 h; for GI50: read-out: IGROV-ET GI50; for CC50: read-out: IGROV-ET LC50; for IC (TGI): read-out: IGROV-ET TGI
How it was run: (§1)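 Colorimetric SRB read (490 nm) on triplicate wells after 48 h at 37 °C, 5% CO2. Dose range 10 to 10^−8 μg/ml; 5×10^3 cells/well pre-attached 18 h.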

LNCaP = assay: as above; details: Homo sapiens, LNCaP, 48 h
How it was run: as §1

LoVo-Dox = assay: as above; details: Homo sapiens, 48 h; for GI50: read-out: LOVO-DOX GI50; for CC50: read-out: LOVO-DOX LC50; for IC (TGI): read-out: LOVO-DOX TGI
How it was run: as §1

K-562 = assay: as above; details: Homo sapiens, K562, 48 h; for GI50: read-out: K562 GI50; for CC50: read-out: K562 LC50; for IC (TGI): read-out: K562 TGI
How it was run: as §1

SK-BR-3 = assay: as above; details: Homo sapiens, SK-BR-3, 48 h; for GI50: read-out: SK-BR3 GI50; for CC50: read-out: SK-BR3 LC50; for IC (TGI): read-out: SK-BR3 TGI
How it was run: as §1

IGROV-1 = assay: as above; details: Homo sapiens, IGROV-1, 48 h; for GI50: read-out: IGROV GI50; for CC50: read-out: IGROV LC50; for IC (TGI): read-out: IGROV TGI
How it was run: as §1

SK-MEL-28 = assay: as above; details: Homo sapiens, SK-MEL-28, 48 h
How it was run: as §1

DU-145 = assay: as above; details: Homo sapiens, DU-145, 48 h
How it was run: as §1

PANC-1 = assay: as above; details: Homo sapiens, PANC-1, 48 h; for GI50: read-out: PANC-1 GI50; for CC50: read-out: PANC-1 LC50; for IC (TGI): read-out: PANC-1 TGI
How it was run: as §1

HeLa-APL = assay: as above; details: Homo sapiens, 48 h; for GI50: read-out: HELA-APL GI50; for CC50: read-out: HELA-APL LC50
How it was run: as §1

HeLa = assay: as above; details: Homo sapiens, HeLa, 48 h; for GI50: read-out: HELA GI50; for CC50: read-out: HELA LC50; for IC (TGI): read-out: HELA TGI
How it was run: as §1

LoVo = assay: cells; details: Homo sapiens, LoVo, 48 h; for GI50: read-out: LOVO GI50; for CC50: read-out: LOVO LC50; for IC (TGI): read-out: LOVO TGI
How it was run: as §1

A-549 = assay: cells; details: Homo sapiens, A549, 48 h
How it was run: as §1

HT-29 = assay: cells; details: Homo sapiens, HT-29, 48 h
How it was run: as §1

CCCCCCCCCCCCCCCC(=O)NC1CS[C@@H]2c3c(OC(C)=O)c(C)c4c(c3[C@H](COC1=O)N1C2[C@@H]2N[C@@H](Cc3cc(C)c(OC)c(O)c32)[C@@H]1O)OCO4 (some centres unmarked) [compound 38]
GI50 (IGROV-ET): 365 nM | CC50 (IGROV-ET): 1480 nM | IC (TGI) (IGROV-ET): 675 nM | GI50 (LNCaP; read-out: GI50 LNCAP): 338 nM | CC50 (LNCaP; read-out: LC50 LNCAP): 796 nM | IC (TGI) (LNCaP; read-out: TGI LNCAP): 518 nM | GI50 (LoVo-Dox): 1540 nM | CC50 (LoVo-Dox): 6150 nM | IC (TGI) (LoVo-Dox): 3080 nM | GI50 (K-562): 193 nM | CC50 (K-562): 1540 nM | IC (TGI) (K-562): 510 nM | GI50 (SK-BR-3): 194 nM | CC50 (SK-BR-3): 1070 nM | IC (TGI) (SK-BR-3): 457 nM | GI50 (IGROV-1): 381 nM | CC50 (IGROV-1): 4180 nM | IC (TGI) (IGROV-1): 786 nM | GI50 (SK-MEL-28; read-out: GI50 MEL-28): 272 nM | CC50 (SK-MEL-28; read-out: LC50 MEL-28): 860 nM | IC (TGI) (SK-MEL-28; read-out: TGI MEL-28): 483 nM | GI50 (DU-145; read-out: GI50 DU145): 286 nM | CC50 (DU-145; read-out: LC50 DU145): 1110 nM | IC (TGI) (DU-145; read-out: TGI DU145): 564 nM | GI50 (PANC-1): 616 nM | CC50 (PANC-1): 4500 nM | IC (TGI) (PANC-1): 1380 nM | GI50 (HeLa-APL): 295 nM | CC50 (HeLa-APL): 1020 nM | IC (TGI) (HeLa-APL; read-out: HELA-APL TGI): 549 nM | GI50 (HeLa): 317 nM | CC50 (HeLa): 935 nM | IC (TGI) (HeLa): 545 nM | GI50 (LoVo): 358 nM | CC50 (LoVo): 2510 nM | IC (TGI) (LoVo): 793 nM | GI50 (A-549; read-out: GI50 A549): 473 nM | CC50 (A-549; read-out: LC50 A549): 4710 nM | IC (TGI) (A-549; read-out: TGI A549): 1420 nM | GI50 (HT-29; read-out: GI50 HT29): 653 nM | CC50 (HT-29; read-out: LC50 HT29): 4730 nM | IC (TGI) (HT-29; read-out: TGI HT29): 1670 nM

C=CCN1[C@@H]2c3c(cc(C)c(OC)c3O)C[C@H]1[C@H](C#N)N1C2[C@@H]2SC[C@]3(NCCc4cc(OC(=O)OC(C)(C)C)c(OC)cc43)C(=O)OC[C@H]1c1c3c(c(C)c(OC(=O)/C=C/c4ccccc4)c12)OCO3 (some centres unmarked) [compound 47]
GI50 (IGROV-ET): 4920 nM | CC50 (IGROV-ET): 10200 nM | IC (TGI) (IGROV-ET): 10200 nM | GI50 (LNCaP; read-out: LNCAP GI50): 449 nM | CC50 (LNCaP; read-out: LNCAP LC50): 10200 nM | IC (TGI) (LNCaP; read-out: LNCAP TGI): 2920 nM | GI50 (LoVo-Dox): 10200 nM | CC50 (LoVo-Dox): 10200 nM | IC (TGI) (LoVo-Dox): 10200 nM | GI50 (K-562): 173 nM | CC50 (K-562): 10200 nM | IC (TGI) (K-562): 2320 nM | GI50 (SK-BR-3): 301 nM | CC50 (SK-BR-3): 10200 nM | IC (TGI) (SK-BR-3): 1370 nM | GI50 (IGROV-1): 4220 nM | CC50 (IGROV-1): 10200 nM | IC (TGI) (IGROV-1): 10200 nM | GI50 (SK-MEL-28; read-out: MEL-28 GI50): 8700 nM | CC50 (SK-MEL-28; read-out: MEL-28 LC50): 10200 nM | IC (TGI) (SK-MEL-28; read-out: MEL-28 TGI): 10200 nM | GI50 (DU-145; read-out: DU145 GI50): 4120 nM | CC50 (DU-145; read-out: DU145 LC50): 10200 nM | IC (TGI) (DU-145; read-out: DU145 TGI): 10200 nM | GI50 (PANC-1): 10200 nM | CC50 (PANC-1): 10200 nM | IC (TGI) (PANC-1): 10200 nM | GI50 (HeLa-APL): 3740 nM | CC50 (HeLa-APL): 10200 nM | GI50 (HeLa): 4100 nM | CC50 (HeLa): 10200 nM | IC (TGI) (HeLa): 10200 nM | GI50 (LoVo): 9160 nM | CC50 (LoVo): 10200 nM | IC (TGI) (LoVo): 10200 nM | GI50 (A-549; read-out: A549 GI50): 10200 nM | CC50 (A-549; read-out: A549 LC50): 10200 nM | IC (TGI) (A-549; read-out: A549 TGI): 10200 nM | GI50 (HT-29; read-out: HT29 GI50): 10200 nM | CC50 (HT-29; read-out: HT29 LC50): 10200 nM | IC (TGI) (HT-29; read-out: HT29 TGI): 10200 nM
